The values that follow come from article PMC12121777 (PLOS One, 2025).

Each structure is given as a SMILES string. Converted amounts (≈) assume the structure as drawn. Read-outs that look alike come from different tables or passages of the source.

Assay in all cases: microbe, parasite or virus in culture
Assay type in all cases: cell-based

Experiment [1] concerns Mtb 7357/1998. The note with it: Mycobacterium tuberculosis, read-out: MIC Mtb 7357/1998.
Experiment [2] relates to Mtb 9449/2007. Particulars: Mycobacterium tuberculosis, read-out: MIC Mtb 9449/2007.
The test system of experiment [3] is Mtb 8666/2010. The note with it: Mycobacterium tuberculosis, read-out: MIC Mtb 8666/2010.
The test system of experiment [4] is Mtb 234/2005. The note with it: Mycobacterium tuberculosis, read-out: MIC Mtb 234/2005.
For experiment [5], the system named is Mtb Praha 4. The note with it: Mycobacterium tuberculosis, read-out: MIC Mtb Praha 4.
The test system of experiment [6] is Mtb Praha 131. Particulars: Mycobacterium tuberculosis, read-out: MIC Mtb Praha 131.
For experiment [7], the system named is Mtb Praha 1. Particulars: Mycobacterium tuberculosis, read-out: MIC Mtb Praha 1.

For `CCCCCCCCCCCCNC(=S)NNC(=O)c1cc([N+](=O)[O-])cc([N+](=O)[O-])c1` [Compound 4s, 2-(3,5-Dinitrobenzoyl)-N-dodecylhydrazine-1-carbothioamide], the MIC was found to be 1 µM (≈ 0.454 µg/mL) in experiment [1] (7357/1998, 336 h); 2 µM (≈ 0.907 µg/mL) in experiment [1] (7357/1998, 504 h); 2 µM (≈ 0.907 µg/mL) in experiment [2] (9449/2007, 336 h); 2 µM (≈ 0.907 µg/mL) in experiment [2] (9449/2007, 504 h); 1 µM (≈ 0.454 µg/mL) in experiment [3] (8666/2010, 336 h); 2 µM (≈ 0.907 µg/mL) in experiment [3] (8666/2010, 504 h). In addition, the MIC in experiment [4] (234/2005, 336 h) was 2 µM (≈ 0.907 µg/mL); in experiment [4] (234/2005, 504 h) it was 4 µM (≈ 1.81 µg/mL); in experiment [5] (PRAHA4, 336 h), 2 µM (≈ 0.907 µg/mL); in experiment [5] (PRAHA4, 504 h), 2 µM (≈ 0.907 µg/mL); in experiment [6] (PRAHA131, 336 h), 2 µM (≈ 0.907 µg/mL); in experiment [6] (PRAHA131, 504 h), 4 µM (≈ 1.81 µg/mL). Moreover, the MIC was determined as 2 µM (≈ 0.907 µg/mL) in experiment [7] (PRAHA1, 336 h) and 2 µM (≈ 0.907 µg/mL) in experiment [7] (PRAHA1, 504 h).
Regarding `CCCCCCCCCCCCNc1nnc(-c2cc([N+](=O)[O-])cc([N+](=O)[O-])c2)o1` [Compound 5l, 5-(3,5-Dinitrophenyl)-N-dodecyl-1,3,4-oxadiazol-2-amine], the MIC in experiment [1] (7357/1998, 336 h) was 0.5 µM (≈ 0.21 µg/mL); in experiment [1] (7357/1998, 504 h), 0.5 µM (≈ 0.21 µg/mL); in experiment [2] (9449/2007, 336 h), 0.25 µM (≈ 0.105 µg/mL); in experiment [2] (9449/2007, 504 h), 0.5 µM (≈ 0.21 µg/mL); in experiment [3] (8666/2010, 336 h), 0.25 µM (≈ 0.105 µg/mL); in experiment [3] (8666/2010, 504 h) it was 0.5 µM (≈ 0.21 µg/mL). Moreover, the MIC in experiment [4] (234/2005, 336 h) is 0.25 µM (≈ 0.105 µg/mL); in experiment [4] (234/2005, 504 h) it was 0.5 µM (≈ 0.21 µg/mL); in experiment [5] (PRAHA4, 336 h), 0.25 µM (≈ 0.105 µg/mL); in experiment [5] (PRAHA4, 504 h), 0.5 µM (≈ 0.21 µg/mL); in experiment [6] (PRAHA131, 336 h) it was 0.25 µM (≈ 0.105 µg/mL); in experiment [6] (PRAHA131, 504 h) it was 0.5 µM (≈ 0.21 µg/mL). Also, the MIC in experiment [7] (PRAHA1, 336 h) came to 0.25 µM (≈ 0.105 µg/mL); in experiment [7] (PRAHA1, 504 h), 0.5 µM (≈ 0.21 µg/mL).
Consider `CCCCCCCNC(=O)NNC(=O)c1cc([N+](=O)[O-])cc([N+](=O)[O-])c1` [Compound 4g, 2-(3,5-Dinitrobenzoyl)-N-heptylhydrazine-1-carboxamide], for which the MIC in experiment [1] (7357/1998, 336 h) was 1 µM (≈ 0.367 µg/mL); in experiment [1] (7357/1998, 504 h) it was 1 µM (≈ 0.367 µg/mL); in experiment [2] (9449/2007, 336 h), 1 µM (≈ 0.367 µg/mL); in experiment [2] (9449/2007, 504 h) it was 1 µM (≈ 0.367 µg/mL); in experiment [3] (8666/2010, 336 h) it was 1 µM (≈ 0.367 µg/mL); in experiment [3] (8666/2010, 504 h), 1 µM (≈ 0.367 µg/mL). Moreover, the MIC in experiment [4] (234/2005, 336 h) turned out to be 1 µM (≈ 0.367 µg/mL); in experiment [4] (234/2005, 504 h), 2 µM (≈ 0.735 µg/mL); in experiment [5] (PRAHA4, 336 h) it was 1 µM (≈ 0.367 µg/mL); in experiment [5] (PRAHA4, 504 h), 1 µM (≈ 0.367 µg/mL); in experiment [6] (PRAHA131, 336 h), 1 µM (≈ 0.367 µg/mL); in experiment [6] (PRAHA131, 504 h), 2 µM (≈ 0.735 µg/mL). In addition, the MIC was 1 µM (≈ 0.367 µg/mL) in experiment [7] (PRAHA1, 336 h) and 2 µM (≈ 0.735 µg/mL) in experiment [7] (PRAHA1, 504 h).
On to `CCCCCCNc1nnc(-c2cc([N+](=O)[O-])cc([N+](=O)[O-])c2)o1` [Compound 5f, 5-(3,5-Dinitrophenyl)-N-hexyl-1,3,4-oxadiazol-2-amine], for which the MIC in experiment [1] (7357/1998, 336 h) was not above 0.03 µM; in experiment [1] (7357/1998, 504 h) it was not above 0.03 µM; in experiment [2] (9449/2007, 336 h), not above 0.03 µM; in experiment [2] (9449/2007, 504 h) it was not above 0.03 µM; in experiment [3] (8666/2010, 336 h), not above 0.03 µM; in experiment [3] (8666/2010, 504 h) it was not above 0.03 µM. Also, the MIC in experiment [4] (234/2005, 336 h) was not above 0.03 µM; in experiment [4] (234/2005, 504 h), not above 0.03 µM; in experiment [5] (PRAHA4, 336 h) it was not above 0.03 µM; in experiment [5] (PRAHA4, 504 h) it was not above 0.03 µM; in experiment [6] (PRAHA131, 336 h), not above 0.03 µM; in experiment [6] (PRAHA131, 504 h), not above 0.03 µM. Besides, the MIC in experiment [7] (PRAHA1, 336 h) is not above 0.03 µM; in experiment [7] (PRAHA1, 504 h), not above 0.03 µM.
Regarding `CCCCCCCCCCNc1nnc(-c2cc([N+](=O)[O-])cc([N+](=O)[O-])c2)o1` [Compound 5j, N-Decyl-5-(3,5-dinitrophenyl)-1,3,4-oxadiazol-2-amine], the MIC in experiment [1] (7357/1998, 336 h) stood at 0.25 µM (≈ 0.0979 µg/mL); in experiment [1] (7357/1998, 504 h), 0.5 µM (≈ 0.196 µg/mL); in experiment [2] (9449/2007, 336 h) it was 0.25 µM (≈ 0.0979 µg/mL); in experiment [2] (9449/2007, 504 h), 0.5 µM (≈ 0.196 µg/mL); in experiment [3] (8666/2010, 336 h), 0.25 µM (≈ 0.0979 µg/mL); in experiment [3] (8666/2010, 504 h), 0.5 µM (≈ 0.196 µg/mL). Further, the MIC in experiment [4] (234/2005, 336 h) was found to be 0.25 µM (≈ 0.0979 µg/mL); in experiment [4] (234/2005, 504 h) it was 0.5 µM (≈ 0.196 µg/mL); in experiment [5] (PRAHA4, 336 h), 0.25 µM (≈ 0.0979 µg/mL); in experiment [5] (PRAHA4, 504 h), 0.5 µM (≈ 0.196 µg/mL); in experiment [6] (PRAHA131, 336 h), 0.25 µM (≈ 0.0979 µg/mL); in experiment [6] (PRAHA131, 504 h), 0.5 µM (≈ 0.196 µg/mL). Further, the MIC in experiment [7] (PRAHA1, 336 h) came out at 0.25 µM (≈ 0.0979 µg/mL); in experiment [7] (PRAHA1, 504 h) it was 0.5 µM (≈ 0.196 µg/mL).
On to `CCCCCCCCCCCCNc1nnc(-c2cc([N+](=O)[O-])cc([N+](=O)[O-])c2)s1` [Compound 5s, 5-(3,5-Dinitrophenyl)-N-dodecyl-1,3,4-thiadiazol-2-amine], for which the MIC in experiment [1] (7357/1998, 336 h) was determined as 0.5 µM (≈ 0.218 µg/mL); in experiment [1] (7357/1998, 504 h), 1 µM (≈ 0.436 µg/mL); in experiment [2] (9449/2007, 336 h) it was 1 µM (≈ 0.436 µg/mL); in experiment [2] (9449/2007, 504 h) it was 2 µM (≈ 0.871 µg/mL); in experiment [3] (8666/2010, 336 h) it was 0.5 µM (≈ 0.218 µg/mL); in experiment [3] (8666/2010, 504 h) it was 1 µM (≈ 0.436 µg/mL). The MIC in experiment [4] (234/2005, 336 h) came out at 0.5 µM (≈ 0.218 µg/mL); in experiment [4] (234/2005, 504 h), 1 µM (≈ 0.436 µg/mL); in experiment [5] (PRAHA4, 336 h) it was 1 µM (≈ 0.436 µg/mL); in experiment [5] (PRAHA4, 504 h) it was 1 µM (≈ 0.436 µg/mL); in experiment [6] (PRAHA131, 336 h) it was 1 µM (≈ 0.436 µg/mL); in experiment [6] (PRAHA131, 504 h), 1 µM (≈ 0.436 µg/mL). Also, the MIC is 1 µM (≈ 0.436 µg/mL) in experiment [7] (PRAHA1, 336 h) and 1 µM (≈ 0.436 µg/mL) in experiment [7] (PRAHA1, 504 h).
